Test results taken from patent EP1935887A1, “Heterocyclic substituted carbonyl derivatives and their use as dopamine D3 receptor ligands” (Aventis Pharmaceuticals Inc., priority 2001, dated 2002).

The compounds below were run against T1, Cloned Human Dopamine D3 Receptors (Homo sapiens, UniProt P35462) (assay: [N-Methyl-3H]Spiroperidol binding to cloned human dopamine D3 receptors). Settings: D3 Ki (nM).
T1 construct: expressed in transfected cells; membrane homogenate
T1 sequence (P35462 whole entry): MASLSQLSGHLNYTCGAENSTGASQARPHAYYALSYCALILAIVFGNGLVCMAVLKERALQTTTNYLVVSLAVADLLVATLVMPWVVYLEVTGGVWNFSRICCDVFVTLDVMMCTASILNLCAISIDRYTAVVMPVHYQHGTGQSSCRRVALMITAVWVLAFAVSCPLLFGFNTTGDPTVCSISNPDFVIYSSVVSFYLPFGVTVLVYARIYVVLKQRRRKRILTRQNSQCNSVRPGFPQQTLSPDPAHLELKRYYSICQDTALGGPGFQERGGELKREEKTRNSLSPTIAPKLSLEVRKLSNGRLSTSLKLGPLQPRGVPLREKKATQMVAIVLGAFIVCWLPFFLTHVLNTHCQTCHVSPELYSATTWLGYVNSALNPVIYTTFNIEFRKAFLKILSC
Method in brief: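 [N-methyl-3H]spiroperidol binding is run in Tris buffer, pH 7.7. Receptor source is membranes of a stably transfected, high-expressing CHO clone carrying the human D3 gene, kept at -80°C in 10% DMSO.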
O=C(C1CC1CN1CCC(c2noc3ccsc23)CC1)N1CCC(Nc2ccc(Cl)cc2)CC1 (stereo not drawn) [compound 832395] was tested, and the Ki was 30.2 nM. Compound Cn1nc(C2CCN(C[C@@H]3C[C@H]3C(=O)NCCCN3CCCCC3)CC2)c2cc(C(F)(F)F)ccc21 [833585ES] has a Ki of 5.86 nM. For O=C(NC1CCN(Cc2cc(F)ccc2F)CC1)C1CC1CN1CCC(c2noc3ccsc23)CC1 (stereo not drawn) [compound 832345], the Ki was 1.46 nM.

Same assay, conditions: Table 2; unit inferred; read-out: d3Ki
In the case of C[C@@]1(C(=O)NCC2CC2)C[C@H]1CN1CCN(c2csc3cc(C(F)(F)F)ccc23)CC1 [compound 825895], the Ki is reported as 31.7 nM. In the case of CN(C(=O)CCCN1CCN(c2csc3cc(F)ccc23)CC1Cc1ccccc1)C1CCCCC1 (stereo not drawn) [compound 827089], the Ki is reported as 307 nM. CCC1CCC(NC(=O)C2CC2CN2CCN(c3ncc(C(F)(F)F)cc3Cl)CC2)CC1 (stereo not drawn) [817480A] gave a Ki of 5.33 nM. Compound CC1CCCC(NC(=O)CCCN2CCN(c3csc4cc(F)ccc34)CC2Cc2ccccc2)C1 (stereo not drawn) [compound 827088] has a Ki of 284 nM. Work on CC1CCCC(NC(=O)[C@@H]2C[C@H]2CN2CCN(c3csc4cc(C(F)(F)F)ccc34)CC2)C1 (stereo partly drawn) [compound 826884] yielded a Ki of 15.2 nM. With O=C(NCCc1ccccn1)[C@@H]1C[C@H]1CN1CCN(c2csc3cc(C(F)(F)F)ccc23)CC1 [compound 826080] the Ki was 14.8 nM. CCN(CC)C(=O)[C@H]1CC[C@H](NC(=O)[C@@H]2C[C@H]2CN2CCN(c3csc4cc(C(F)(F)F)ccc34)CC2)CC1 [compound 817048] gave a Ki of 2.85 nM. CCN(C(=O)CCCN1CCN(c2csc3cc(F)ccc23)CC1Cc1ccccc1)C1CCCCC1 (stereo not drawn) [compound 827090] was tested, and the Ki was 346 nM. COCCNC(=O)C1CCC(NC(=O)C2CC2CN2CCN(c3csc4cc(C(F)(F)F)ccc34)CC2)CC1 (stereo not drawn) [compound 817049] showed a Ki of 7.02 nM. Work on CCN(C(=O)CCCCN1CCN(c2csc3cc(F)ccc23)CC1)c1c(C)cccc1O [compound 822132] yielded a Ki of 18 nM. CCC1CCC(NC(=O)CCCN2CCN(c3csc4cc(F)ccc34)CC2Cc2ccccc2)CC1 (stereo not drawn) [compound 827087] gave a Ki of 178 nM. In the case of CC1C(CN2CCN(c3csc4cc(C(F)(F)F)ccc34)CC2)C1C(=O)NC1CCC1 (stereo not drawn) [compound 825857], the Ki is reported as 137 nM. In the case of C[C@H]1CC[C@H](NC(=O)[C@@H]2C[C@H]2CN2CCN(c3cc(Cl)cc(Cl)c3)CC2)CC1 [compound 817095], the Ki is reported as 0.671 nM. Compound C[C@H]1CC[C@H](NC(=O)[C@@H]2C[C@H]2CN2CCN(c3ccccc3C#N)CC2)CC1 [compound 817040] has a Ki of 0.804 nM. For O=C(CCCCN1CCN(c2csc3cc(F)ccc23)CC1)Nc1ccccc1F [compound 822135], the Ki was 3.6 nM.

Same assay, conditions: Table 2 part the 10th table; read-out: d3Ki
Work on CN(C)C1CCN(C(=O)CCCN2CCCN(c3csc4cc(F)ccc34)CC2)C1 (stereo not drawn) [compound 826843] yielded a Ki of 126 nM. Compound O=C([C@@H]1C[C@H]1CN1CCN(c2csc3cc(C(F)(F)F)ccc23)CC1)N1CCCC(O)C1 (stereo partly drawn) [compound 826902] has a Ki of 13.1 nM. For CCOC(=O)C1CCCN(C(=O)[C@@H]2C[C@H]2CN2CCN(c3csc4cc(C(F)(F)F)ccc34)CC2)C1 (stereo partly drawn) [compound 826909], the Ki was 28.9 nM. COC[C@@H]1CCCN1C(=O)[C@@H]1C[C@H]1CN1CCN(c2csc3cc(C(F)(F)F)ccc23)CC1 [compound 826917] was tested, and the Ki was 196 nM. CC1CCCC(C)N1C(=O)[C@@H]1C[C@H]1CN1CCN(c2csc3cc(F)ccc23)CC1 (stereo partly drawn) [compound 826675] showed a Ki of 8 nM. With O=C(CCCN1CCCN(c2csc3cc(F)ccc23)CC1)N1CCC(N2CCCC2)CC1 [compound 826836] the Ki was 2.23 nM. CC1(C)CC2CC(C)(CN2C(=O)[C@@H]2C[C@H]2CN2CCN(c3csc4cc(C(F)(F)F)ccc34)CC2)C1 (stereo partly drawn) [compound 826896] showed a Ki of 89.5 nM. O=C([C@@H]1C[C@H]1CN1CCN(c2csc3cc(C(F)(F)F)ccc23)CC1)N1CCCC1 [compound 826657] showed a Ki of 14 nM.

Same assay, conditions: d3Ki, Table 2; unit inferred
Work on C[C@H]1CC[C@H](NC(=O)[C@H]2C[C@@H]2CN2CCN(c3noc4ccsc34)CC2)CC1 [compound 817893] yielded a Ki of 245 nM.

Same assay, conditions: d3Ki, Table 2 part the 10th table
For O=C([C@@H]1C[C@H]1CN1CCN(c2csc3cc(F)ccc23)CC1)N1CCC(O)CC1 [compound 826672], the Ki was 0.64 nM.

Same assay, conditions: read-out: D3 Ki
O=C(NC1CCN(Cc2cccc(F)c2)CC1)[C@@H]1C[C@H]1CN1CCN(c2csc3cc(C(F)(F)F)ccc23)CC1 [compound 832736] showed a Ki of 2.74 nM. C[C@H]1CC[C@H](NC(=O)[C@@H]2C[C@H]2CN2CCC(c3nc4cc(Cl)ccc4o3)CC2)CC1 [compound 833692] gave a Ki of 72.9 nM. Work on O=C([C@@H]1C[C@H]1CN1CCC(c2noc3ccsc23)CC1)N1CCOCC1 [compound 829461] yielded a Ki of 306 nM. Work on C[C@H]1CC[C@H](NC(=O)[C@@H]2C[C@H]2CN2CCC(c3csc4cc(C(F)(F)F)ccc34)CC2)CC1 [compound 834016] yielded a Ki of 1.63 nM. In the case of O=C(NC1CCC(O)CC1)C1CC1CN1CCN(c2noc3ccsc23)CC1 (stereo not drawn) [compound 831955], the Ki is reported as 47.3 nM. CC(C)(C)OC(=O)N1CCC(CNC(=O)[C@@H]2C[C@H]2CN2CCC(c3noc4c(C(F)(F)F)cccc34)CC2)CC1 [A002439261] was tested, and the Ki was 55.3 nM.

Same assay, conditions: read-out: d3Ki
In the case of CN(C(=O)[C@@H]1C[C@H]1CN1CCCN(c2csc3cc(F)ccc23)CC1)C1CCCCC1 [compound 826868], the Ki is reported as 3.49 nM. For C[C@H]1CC[C@H](NC(=O)[C@@H]2C[C@H]2CN2CCN(c3ccc(C(F)(F)F)cc3Cl)CC2)CC1 [compound 827181], the Ki was 97.2 nM. For CCOc1ccccc1N1CCN(C[C@@H]2C[C@H]2C(=O)N[C@H]2CC[C@H](C)CC2)CC1 [compound 827176], the Ki was 1.18 nM. Compound CC[C@H]1CC[C@H](NC(=O)[C@@H]2C[C@H]2CN2CCN(c3ncc(C(F)(F)F)cc3Cl)CC2)CC1 [compound 817480] has a Ki of 3.07 nM. O=C(NC1CCCC1)[C@@H]1C[C@H]1CN1CCN(c2csc3cc(F)ccc23)CC1 [compound 826670] gave a Ki of 4.2 nM. In the case of Cc1cccc(CNC(=O)[C@@H]2CCC[C@H]2N2CCN(c3csc4cc(F)ccc34)CC2)c1 [compound 825900], the Ki is reported as 22.4 nM. CCOC(=O)[C@H]1CCCC[C@@H]1NC(=O)[C@@H]1C[C@H]1CN1CCN(c2csc3cc(C(F)(F)F)ccc23)CC1 [compound 826898] showed a Ki of 50.5 nM. CN(C)c1ccc(CNC(=O)[C@@H]2CCC[C@H]2N2CCN(c3csc4cc(F)ccc34)CC2)cc1 [compound 825828] gave a Ki of 21.8 nM. Compound O=C(NC1CCCCC1)[C@@H]1CCC[C@H]1N1CCN(c2csc3cc(F)ccc23)CC1 [compound 826060] has a Ki of 40.2 nM. In the case of CN(C)c1ccc(CNC(=O)[C@@H]2CCCC[C@H]2CN2CCN(c3csc4cc(C(F)(F)F)ccc34)CC2)cc1 [compound 826086], the Ki is reported as 103 nM. For CC[C@H]1CC[C@H](NC(=O)[C@@H]2C[C@H]2CN2CCN(c3ccc(C)cc3C)CC2)CC1 [compound 817571], the Ki was 2.85 nM. CCOC(=O)[C@H]1CCCC[C@H]1NC(=O)[C@@H]1C[C@H]1CN1CCN(c2csc3cc(C(F)(F)F)ccc23)CC1 [compound 826897] showed a Ki of 128 nM. For CC1CCC(NC(=O)C2CC2CN2CCN(c3ncccn3)CC2)CC1 (stereo not drawn) [compound 827197], the Ki was 27.6 nM.

Same assay, conditions: the 16th table; read-out: D3 Ki
With COc1c(F)ccc2c(C3CCN(CCC4(C(=O)N[C@H]5CC[C@H](C)CC5)CC4)CC3)noc12 [compound 833330] the Ki was 72.7 nM.
